Earlier results as cited in article PMC7670640 (Pharmacology Research & Perspectives, 2020).

Conditions: prior terminated phase IIb clinical trial; cited from earlier work

C=C(C)[C@@H]1CC[C@]2(NCCN3CCS(=O)(=O)CC3)CC[C@]3(C)[C@H](CC[C@@H]4[C@@]5(C)CC=C(c6ccc(C(=O)O)cc6)C(C)(C)[C@@H]5CC[C@]43C)[C@@H]12 [GSK3532795]
GI intolerability: GI intolerability (predominantly abdominal pain and diarrhea)
